This is an account of results in patent US20150175599A1, “FAAH Inhibitors” (Ironwood Pharmaceuticals, Inc., priority 2010, published 2015).

Some results are limits rather than exact numbers.

One data set deals with T1, FAAH (Homo sapiens, UniProt O00519).
T1 construct: Reactions were initiated by adding 12.5 μg of brain microsome; tissue ABS, Inc; host or cells: human brain cerebral cortex, membrane/microsome fraction pooled from 3 donors
T1 sequence (O00519 1-579): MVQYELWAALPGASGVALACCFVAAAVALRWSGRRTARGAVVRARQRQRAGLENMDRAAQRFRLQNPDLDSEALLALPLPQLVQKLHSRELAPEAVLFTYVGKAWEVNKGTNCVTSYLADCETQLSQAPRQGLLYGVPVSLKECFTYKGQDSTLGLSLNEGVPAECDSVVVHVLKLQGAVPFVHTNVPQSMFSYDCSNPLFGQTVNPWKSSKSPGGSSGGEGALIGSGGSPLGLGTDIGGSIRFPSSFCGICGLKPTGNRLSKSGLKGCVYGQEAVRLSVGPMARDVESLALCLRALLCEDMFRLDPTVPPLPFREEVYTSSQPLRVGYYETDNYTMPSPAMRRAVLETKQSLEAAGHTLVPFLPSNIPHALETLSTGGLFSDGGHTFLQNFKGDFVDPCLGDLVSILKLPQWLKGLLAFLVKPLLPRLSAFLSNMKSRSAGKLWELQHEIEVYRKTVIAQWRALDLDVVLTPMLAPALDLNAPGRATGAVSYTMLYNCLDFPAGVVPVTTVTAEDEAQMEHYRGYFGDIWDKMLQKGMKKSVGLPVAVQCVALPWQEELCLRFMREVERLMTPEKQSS
Kind of data set: FAAH inhibition, human brain membrane homogenate assay. Type of data set: biochemical. Conditions: human brain homogenate; average activity; read-out: Human brain Extract FAAH IC50.

Another data set has as its target T2, hERG channel (Homo sapiens, UniProt Q12809).
T2 construct: expressed in transfected cells; host or cells: CHO (hERG-CHO), under Geneticin selection
Kind of data set: hERG channel inhibition, automated patch clamp (IonWorks HT, hERG-CHO). The data set is classed as cell-based. The following applies: CHO cells expressing hERG, 600 s incubation; for inhibition at 600 s, 1 µM: 1 μM compound, read-out: hERG Channel Inhibition % (at 1 μM), vehicle-subtracted values; for inhibition at 600 s, 10 µM: 10 μM compound, read-out: hERG Channel Inhibition % (at 10 μM), vehicle-subtracted values. On the procedure: Human ether-a-gogo-related (hERG) ion channel encodes the inward rectifying voltage gated potassium channel in the heart and has a major role during the repolarization of the cardiac action potential. It is well established that blockade of this ion channel can lead to potentially lethal arrhythmias. hERG pre-clinical safety data is often used by regulatory agencies in elucidate the toxicity profile of certain compositions. The disclosed compounds of Table 1 were tested for their ability to inhibit hERG ion channels.
Media components include F12 Nutrient Mixture (Ham) with GlutaMAX™ (Invitrogen, Cat#31765), Fetal Bovine Serum, Certified (Invitrogen, Cat#16000-044—not heat activated), and Geneticin® Selective Antibiotic (Invitrogen, Cat#10131-027).
One vial of frozen cells, at 1.62×10^6 cells are thawed into a T150 flask (BD Falcon 355001) with 40 mL of pre-warmed complete media. Cells are cultured at 37° C., 5% CO2 for four hours prior to gently changing media. 99% of cells appear attached at this time point.
The flask is media changed at 24 hours post-thaw, the cells are imaged, media changed, and returned to the incubator. At this point, the cells appear healthy and about 25% confluent in the flask. Cells are typically passed 24-48 hours after thaw according to the following intervals and densities below. Cells are incubated at 30° C. for 48 hours prior to assay.
Using an automated patch clamp apparatus (IonWorks^HT), a three pulse protocol was applied by stepping from a holding potential of −80 mV to […] for 2 s, to activate hERG channels. The membrane voltage was then stepped back to −50 mV for 2 s to evoke a tail current prior to returning to the holding potential for 1 s. This sequence was repeated a further two times. This voltage protocol was applied prior to drug (Pre compound) and after 600 s in the presence of drug (Post compound).
The amplitude of the hERG tail current was calculated by measuring the difference between the maximum current on stepping to −50 mV of the third pulse (i.e. peak of the outward hERG tail current) and the current measured immediately prior to activation of any hERG current. This parameter was assessed before (pre tail current amplitude) and after 600 s incubation (post tail current amplitude) in drug. In order to assess the amount of block produced by test compounds, the data was first filtered using the IonWorks™ software to exclude any cells where the seal resistance was less than 50 MOhm. The remaining data was then exported to an excel compatible data file and only currents with tail currents greater than 250 pA were analyzed. The post/pre tail current amplitude ratio for the third pulse was calculated for each drug and control, and presented as percent inhibition.

T2 sequence (Q12809 whole entry): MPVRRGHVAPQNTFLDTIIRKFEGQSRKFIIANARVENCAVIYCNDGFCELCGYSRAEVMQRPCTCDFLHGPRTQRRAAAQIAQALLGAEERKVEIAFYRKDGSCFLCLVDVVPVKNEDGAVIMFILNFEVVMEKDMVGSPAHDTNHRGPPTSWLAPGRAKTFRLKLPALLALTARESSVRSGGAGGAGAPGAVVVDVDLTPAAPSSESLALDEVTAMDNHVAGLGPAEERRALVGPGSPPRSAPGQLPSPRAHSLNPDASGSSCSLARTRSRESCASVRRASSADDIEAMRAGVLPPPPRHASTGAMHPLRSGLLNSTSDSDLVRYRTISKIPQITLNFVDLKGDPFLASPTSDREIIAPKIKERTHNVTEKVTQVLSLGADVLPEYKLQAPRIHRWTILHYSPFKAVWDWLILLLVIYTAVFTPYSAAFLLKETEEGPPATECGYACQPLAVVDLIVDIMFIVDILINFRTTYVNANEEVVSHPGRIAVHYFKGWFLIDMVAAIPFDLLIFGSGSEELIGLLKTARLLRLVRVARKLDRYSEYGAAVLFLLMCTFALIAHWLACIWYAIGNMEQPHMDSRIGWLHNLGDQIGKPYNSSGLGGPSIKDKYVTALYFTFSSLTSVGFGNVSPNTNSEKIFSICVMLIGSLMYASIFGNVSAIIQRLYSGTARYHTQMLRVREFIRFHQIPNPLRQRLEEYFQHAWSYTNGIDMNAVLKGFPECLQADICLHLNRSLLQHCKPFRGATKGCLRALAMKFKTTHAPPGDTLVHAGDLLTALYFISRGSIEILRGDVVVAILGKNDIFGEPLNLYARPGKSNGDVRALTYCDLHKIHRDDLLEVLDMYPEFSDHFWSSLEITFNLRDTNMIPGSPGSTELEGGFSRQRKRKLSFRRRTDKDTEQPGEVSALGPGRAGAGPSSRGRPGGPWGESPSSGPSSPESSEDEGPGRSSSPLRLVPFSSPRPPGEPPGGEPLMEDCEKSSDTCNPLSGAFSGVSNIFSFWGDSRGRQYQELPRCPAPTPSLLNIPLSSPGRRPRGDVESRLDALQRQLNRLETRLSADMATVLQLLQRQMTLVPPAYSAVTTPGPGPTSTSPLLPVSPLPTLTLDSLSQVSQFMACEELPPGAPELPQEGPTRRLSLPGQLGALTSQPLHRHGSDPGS

In the case of `COc1cc(NC(=O)C(=O)c2c(C)n(Cc3ccc(Cl)cc3)c3ccc(OC(C)=O)cc23)ccn1` [Compound 1, 1-(4-chlorobenzyl)-3-(2-(2-methoxypyridin-4-ylamino)-2-oxoacetyl)-2-methyl-1H-indol-5-yl acetate], the IC50 at FAAH was < 100 nM. At hERG channel, the inhibition at 600 s, 1 µM is < 25% and the inhibition at 600 s, 10 µM was < 25%.

On to `COc1cc(NC(=O)C(=O)c2c(C)n(Cc3ccc(Cl)cc3)c3ccc(O)cc23)ccn1` [Compound 2, 2-(1-(4-chlorobenzyl)-5-hydroxy-2-methyl-1H-indol-3-yl)-N-(2-methoxypyridin-4-yl)-2-oxoacetamide], for which, on FAAH, the IC50 is < 100 nM. Moreover, at hERG channel, the inhibition at 600 s, 1 µM is < 25% and the inhibition at 600 s, 10 µM was < 25%.

Take `COc1cc(NC(=O)C(=O)c2c(C)n(Cc3ccc(Cl)cc3)c3ccc(C(C)=O)cc23)ccn1` [Compound 5, 2-(5-acetyl-1-(4-chlorobenzyl)-2-methyl-1H-indol-3-yl)-N-(2-methoxypyridin-4-yl)-2-oxoacetamide]: on FAAH, the 50% inhibitory concentration (IC50) is < 100 nM. Moreover, at hERG channel, the inhibition at 600 s, 1 µM was < 25% and the inhibition at 600 s, 10 µM lay in the range of 25 to 50%.

For `COc1cc(NC(=O)C(=O)c2c(C)n(Cc3ccc(Cl)cc3)c3ccc(C(=O)N(C)C)cc23)ccn1` [Compound 6, 1-(4-chlorobenzyl)-3-(2-(2-methoxypyridin-4-ylamino)-2-oxoacetyl)-N,N,2-trimethyl-1H-indole-5-carboxamide], on FAAH, the IC50 was in the range of 100 to 1000 nM. Besides, at hERG channel, the inhibition at 600 s, 1 µM was < 25% and the inhibition at 600 s, 10 µM is < 25%.

Regarding `COc1cc(NC(=O)C(=O)c2c(C)n(Cc3ccc(Cl)cc3)c3ccc(N(C)C(=O)OC(C)(C)C)cc23)ccn1` [Compound 7, Tert-butyl(1-(4-chlorobenzyl)-3-(2-((2-methoxypyridin-4-yl)amino)-2-oxoacetyl)-2-methyl-1H-indol-5-yl)(methyl)carbamate], at FAAH, the IC50 fell in the range of 100 to 1000 nM. Further, at hERG channel, the inhibition at 600 s, 1 µM was < 25% and the inhibition at 600 s, 10 µM is < 25%.

As for `CNc1ccc2c(c1)c(C(=O)C(=O)Nc1ccnc(OC)c1)c(C)n2Cc1ccc(Cl)cc1` [Compound 9, 2-(1-(4-chlorobenzyl)-2-methyl-5-(methylamino)-1H-indol-3-yl)-N-(2-methoxypyridin-4-yl)-2-oxoacetamide], the IC50 on FAAH was < 100 nM. Also, at hERG channel, the inhibition at 600 s, 1 µM was < 25% and the inhibition at 600 s, 10 µM is < 25%.

With `COCc1ccc2c(c1)c(C(=O)C(=O)Nc1ccnc(OC)c1)c(C)n2Cc1ccc(Cl)cc1` [Compound 11, 2-(1-(4-chlorobenzyl)-5-(methoxymethyl)-2-methyl-1H-indol-3-yl)-N-(2-methoxypyridin-4-yl)-2-oxoacetamide], the 50% inhibitory concentration (IC50) at FAAH was < 100 nM. At hERG channel, the inhibition at 600 s, 1 µM was < 25% and the inhibition at 600 s, 10 µM lay within 25 to 50%.

In the case of `COc1ccc2c(c1)c(C(=O)C(=O)Nc1ccnc(OC)c1)c(C)n2Cc1cnc(Cl)cn1` [Compound 12, 2-(1-((5-chloropyrazin-2-yl)methyl)-5-methoxy-2-methyl-1H-indol-3-yl)-N-(2-methoxypyridin-4-yl)-2-oxoacetamide], at FAAH, the 50% inhibitory concentration (IC50) was < 100 nM. For the same compound, on hERG channel, the inhibition at 600 s, 1 µM was < 25% and the inhibition at 600 s, 10 µM was < 25%.

Regarding `COc1cc(NC(=O)C(=O)c2c(C)n(Cc3ncc(Cl)cc3Cl)c3cc(F)c(OC)cc23)ccn1` [Compound 13, 2-(1-((3,5-dichloropyridin-2-yl)methyl)-6-fluoro-5-methoxy-2-methyl-1H-indol-3-yl)-N-(2-methoxypyridin-4-yl)-2-oxoacetamide], the 50% inhibitory concentration (IC50) on FAAH was < 100 nM. On hERG channel, the inhibition at 600 s, 1 µM is < 25% and the inhibition at 600 s, 10 µM is < 25%.

For `COc1cc(NC(=O)C(=O)c2c(C)n(Cc3ccc(F)cc3F)c3cc(F)c(OC)cc23)ccn1` [Compound 14, 2-(1-(2,4-difluorobenzyl)-6-fluoro-5-methoxy-2-methyl-1H-indol-3-yl)-N-(2-methoxypyridin-4-yl)-2-oxoacetamide], at FAAH, the IC50 is < 100 nM. Besides, on hERG channel, the inhibition at 600 s, 1 µM was < 25% and the inhibition at 600 s, 10 µM is < 25%.

For the compound `COc1cc(NC(=O)C(=O)c2c(C)n(Cc3ccc(Cl)cc3)c3ccc(C#N)cc23)ccn1` [Compound 15, 2-(1-(4-chlorobenzyl)-5-cyano-2-methyl-1H-indol-3-yl)-N-(2-methoxypyridin-4-yl)-2-oxoacetamide], the half-maximal inhibitory concentration (IC50) at FAAH is < 100 nM. Besides, at hERG channel, the inhibition at 600 s, 1 µM is < 25% and the inhibition at 600 s, 10 µM fell in the range of 50 to 75%.

As to `COc1ccc2c(c1)c(C(=O)C(=O)Nc1ccnc(OC)c1)c(C)n2Cc1ccncc1` [Compound 16, 2-(5-methoxy-2-methyl-1-(pyridin-4-ylmethyl)-1H-indol-3-yl)-N-(2-methoxypyridin-4-yl)-2-oxoacetamide], the IC50 on FAAH lay in the range of 100 to 1000 nM. In addition, on hERG channel, the inhibition at 600 s, 1 µM was < 25% and the inhibition at 600 s, 10 µM is < 25%.

In the case of `COc1cc(NC(=O)C(=O)c2c(C)n(Cc3ccc(Cl)cc3)c3ccc(N(C)C)cc23)ccn1` [Compound 17, 2-(1-(4-chlorobenzyl)-5-(dimethylamino)-2-methyl-1H-indol-3-yl)-N-(2-methoxypyridin-4-yl)-2-oxoacetamide], the half-inhibitory concentration (IC50) at FAAH is < 100 nM. In addition, at hERG channel, the inhibition at 600 s, 1 µM was < 25% and the inhibition at 600 s, 10 µM was < 25%.

Consider `COc1cc(NC(=O)C(=O)c2c(C)n(Cc3ccc(Cl)cc3)c3ccc(Br)cc23)ccn1` [Compound 18, 2-(5-bromo-1-(4-chlorobenzyl)-2-methyl-1H-indol-3-yl)-N-(2-methoxypyridin-4-yl)-2-oxoacetamide], for which the concentration for half-maximal inhibition (IC50) on FAAH was < 100 nM. In addition, at hERG channel, the inhibition at 600 s, 1 µM is < 25% and the inhibition at 600 s, 10 µM was < 25%.

Turning to `COc1cc(NC(=O)C(=O)c2c(C)n(Cc3ccc(Cl)cc3)c3ccc([N+](=O)[O-])cc23)ccn1` [Compound 19, 2-(1-(4-chlorobenzyl)-2-methyl-5-nitro-1H-indol-3-yl)-N-(2-methoxypyridin-4-yl)-2-oxoacetamide], the 50% inhibitory concentration (IC50) on FAAH is < 100 nM. Further, on hERG channel, the inhibition at 600 s, 1 µM was < 25% and the inhibition at 600 s, 10 µM was in the range of 25 to 50%.

As to `COc1cc(NC(=O)C(=O)c2c(C)n(Cc3ccc(Cl)cc3)c3ccc(N)cc23)ccn1` [Compound 20, 2-(5-amino-1-(4-chlorobenzyl)-2-methyl-1H-indol-3-yl)-N-(2-methoxypyridin-4-yl)-2-oxoacetamide], the IC50 at FAAH is < 100 nM. Besides, at hERG channel, the inhibition at 600 s, 1 µM is < 25% and the inhibition at 600 s, 10 µM was < 25%.

Turning to `COc1cc(NC(=O)C(=O)c2c(C)n(Cc3ccc(Cl)cc3)c3ccc(C(F)(F)F)cc23)ccn1` [Compound 21, 2-(1-(4-chlorobenzyl)-2-methyl-5-(trifluoromethyl)-1H-indol-3-yl)-N-(2-methoxypyridin-4-yl)-2-oxoacetamide], the IC50 on FAAH was < 100 nM. Besides, at hERG channel, the inhibition at 600 s, 1 µM was < 25% and the inhibition at 600 s, 10 µM was in the range of 25 to 50%.

For `COc1cc(NC(=O)C(=O)c2c(C)n(Cc3ccc(Cl)cc3)c3ccc(NC(C)=O)cc23)ccn1` [Compound 22, 2-(5-acetamido-1-(4-chlorobenzyl)-2-methyl-1H-indol-3-yl)-N-(2-methoxypyridin-4-yl)-2-oxoacetamide], the IC50 on FAAH is < 100 nM. In addition, at hERG channel, the inhibition at 600 s, 1 µM was < 25% and the inhibition at 600 s, 10 µM was < 25%.
